Series [1] concerns Hepatotoxicity.
Series [2] deals with Hepatotoxicity. This is another data set of the same source.
The test system of series [3] is Hepatotoxicity. The source holds these as a separate data set.
For series [4], the system named is Hepatotoxicity. The source holds these as a separate data set.
For series [5], the system named is Hepatotoxicity. This is another data set of the same source.
Series [6] deals with Hepatotoxicity. This is another data set of the same source.
The test system of series [7] is Hepatotoxicity. This is another data set of the same source.
Series [8] concerns Hepatotoxicity. This is another data set of the same source.
Series [9] concerns Hepatotoxicity. The source holds these as a separate data set.
Series [10] concerns Hepatotoxicity. The source holds these as a separate data set.
Series [11] relates to Hepatotoxicity. The source holds these as a separate data set.
The subject of series [12] is Hepatotoxicity. The source holds these as a separate data set.
In series [13] the test system is Hepatotoxicity. The source holds these as a separate data set.
Series [14] has as its system Hepatotoxicity. This is another data set of the same source.

Molecules are shown by their SMILES.
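Wherever HepSE Combined Scores is given: combined hepatic side effect score as listed in the training data of the Drug Induced Liver Injury Prediction System (DILIps).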
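Wherever HepSE bilirubinemia is given: bilirubinemia hepatic side effect score drawn from the DILIps training data, a prediction system for drug-induced liver injury; call rule not given here.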
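Wherever HepSE cholecystitis is given: Cholecystitis-related hepatic side effect score drawn from the DILIps (drug-induced liver injury prediction) training data set; call rule not given here.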
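Wherever HepSE cholelithiasis is given: hepatic side effect score for cholelithiasis, drawn from the DILIps training data for predicting drug-induced liver injury; call rule not given here.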
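Wherever HepSE cirrhosis is given: cirrhosis hepatic side effect score taken from the DILIps (drug-induced liver injury prediction) training set; call rule not given here.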
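Wherever HepSE elevated liver function tests is given: hepatic side effect score for raised liver function tests, as recorded in the DILIps training set used for predicting drug-induced liver injury.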
Wherever HepSE hepatic failure is given: call rule not given here.
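Wherever HepSE hepatic necrosis is given: score of hepatic side effects for hepatic necrosis, drawn from the training data of DILIps, a prediction system for drug-induced liver injury; call rule not given here.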
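Wherever HepSE hepatitis is given: Hepatitis-related hepatic side effect score taken from the training data of DILIps, a prediction system for drug-induced liver injury; call rule not given here.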
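Wherever HepSE hepatomegaly is given: hepatic side effect score for hepatomegaly, taken from the training set of the DILIps drug-induced liver injury prediction system; call rule not given here.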
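Wherever HepSE jaundice is given: Jaundice-related hepatic side-effect score drawn from the training data of the DILIps (drug-induced liver injury prediction system); call rule not given here.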
Wherever HepSE liver disease is given: call rule not given here.
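Wherever HepSE liver fatty is given: hepatic side effect score for fatty liver, taken from the DILIps training set for predicting drug-induced liver injury; call rule not given here.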
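Wherever HepSE liver function tests abnormal is given: hepatic side effect score taken from the DILIps (drug-induced liver injury prediction system) training data, here covering abnormal liver function test findings.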

In the case of `CC[C@H](C)C[C@H](C)CCCCCCCCC(=O)N[C@H]1C[C@@H](O)[C@@H](NCCN)NC(=O)[C@@H]2[C@@H](O)CCN2C(=O)[C@H]([C@H](O)CCN)NC(=O)[C@H]([C@H](O)[C@@H](O)c2ccc(O)cc2)NC(=O)[C@@H]2C[C@@H](O)CN2C(=O)[C@H]([C@@H](C)O)NC1=O` [CASPOFUNGIN], the HepSE_liver fatty in the series with Hepatotoxicity [1] stood at 0. The compound also displayed a HepSE_cholelithiasis in the series with Hepatotoxicity [2] of 0. In the series on Hepatotoxicity [3], this compound had a HepSE_cholecystitis of 0. In addition, the HepSE_bilirubinemia in the series on Hepatotoxicity [4] was determined as 1. Also, the “HepSE_Combined Scores” value with Hepatotoxicity [5] is listed as 5. This compound also showed a HepSE_liver disease with Hepatotoxicity [6] of 0. Moreover, in the series with Hepatotoxicity [7], the HepSE_jaundice was determined as 1. Further, in the series on Hepatotoxicity [8], the HepSE_hepatic necrosis is 1. In addition, in the series with Hepatotoxicity [9], the “HepSE_elevated liver function tests” value stood at 0. Also, in the series on Hepatotoxicity [10], the HepSE_hepatomegaly was 1. For the same compound, in the series with Hepatotoxicity [11], the HepSE_hepatic failure turned out to be 1. In the series on Hepatotoxicity [12], this compound came in with a HepSE_cirrhosis of 0. In addition, in the series with Hepatotoxicity [13], the “HepSE_liver function tests abnormal” value was found to be 0. Moreover, in the series with Hepatotoxicity [14], the HepSE_hepatitis was 0.
Consider `N[C@@H](C(=O)N[C@@H]1C(=O)N2C(C(=O)O)=C(Cl)CS[C@H]12)c1ccccc1` [CEFACLOR ANHYDROUS], for which, in the series with Hepatotoxicity [1], the HepSE_liver fatty stood at 0. This compound returned a HepSE_cholelithiasis in the series on Hepatotoxicity [2] of 0. In addition, in the series with Hepatotoxicity [3], the HepSE_cholecystitis came to 0. The compound also showed a HepSE_bilirubinemia in the series with Hepatotoxicity [4] of 0. The “HepSE_Combined Scores” value in the series on Hepatotoxicity [5] stood at 2. This compound came in with a HepSE_liver disease in the series on Hepatotoxicity [6] of 0. The HepSE_jaundice with Hepatotoxicity [7] stood at 1. Moreover, the HepSE_hepatic necrosis in the series with Hepatotoxicity [8] is on record as 0. In addition, the “HepSE_elevated liver function tests” value in the series on Hepatotoxicity [9] was 0. In the series on Hepatotoxicity [10], this compound registered a HepSE_hepatomegaly of 0. For the same compound, the HepSE_hepatic failure in the series on Hepatotoxicity [11] was 0. Also, the HepSE_cirrhosis in the series with Hepatotoxicity [12] turned out to be 0. Besides, the “HepSE_liver function tests abnormal” value in the series with Hepatotoxicity [13] worked out at 0. Further, the HepSE_hepatitis in the series with Hepatotoxicity [14] was 1.
For `CC1=C(C(=O)O)N2C(=O)[C@@H](NC(=O)[C@H](N)c3ccc(O)cc3)[C@H]2SC1` [CEFADROXIL], in the series on Hepatotoxicity [1], the HepSE_liver fatty is 0. Besides, the HepSE_cholelithiasis in the series with Hepatotoxicity [2] came to 0. In the series with Hepatotoxicity [3], this compound yielded a HepSE_cholecystitis of 0. This compound also came in with a HepSE_bilirubinemia with Hepatotoxicity [4] of 0. Further, in the series with Hepatotoxicity [5], the “HepSE_Combined Scores” value is 1. Further, the HepSE_liver disease in the series on Hepatotoxicity [6] stood at 0. The compound further returned a HepSE_jaundice in the series with Hepatotoxicity [7] of 0. For the same compound, the HepSE_hepatic necrosis with Hepatotoxicity [8] is on record as 0. Also, in the series on Hepatotoxicity [9], the “HepSE_elevated liver function tests” value was found to be 0. This compound had a HepSE_hepatomegaly in the series with Hepatotoxicity [10] of 0. The compound further came in with a HepSE_hepatic failure with Hepatotoxicity [11] of 1. The same compound displayed a HepSE_cirrhosis in the series on Hepatotoxicity [12] of 0. Besides, the “HepSE_liver function tests abnormal” value with Hepatotoxicity [13] came out at 0. The compound also returned a HepSE_hepatitis in the series with Hepatotoxicity [14] of 0.
In turn, `Cc1nnc(SCC2=C(C(=O)O)N3C(=O)[C@@H](NC(=O)Cn4cnnn4)[C@H]3SC2)s1` [CEFAZOLIN] showed a HepSE_liver fatty in the series with Hepatotoxicity [1] of 0. In the series with Hepatotoxicity [2], this compound registered a HepSE_cholelithiasis of 0. In the series with Hepatotoxicity [3], this compound displayed a HepSE_cholecystitis of 0. The same compound displayed a HepSE_bilirubinemia with Hepatotoxicity [4] of 0. Moreover, the “HepSE_Combined Scores” value with Hepatotoxicity [5] was determined as 1. This compound displayed a HepSE_liver disease in the series on Hepatotoxicity [6] of 0. In the series on Hepatotoxicity [7], this compound had a HepSE_jaundice of 0. Moreover, the HepSE_hepatic necrosis in the series with Hepatotoxicity [8] was determined as 0. Also, the “HepSE_elevated liver function tests” value in the series on Hepatotoxicity [9] worked out at 0. The HepSE_hepatomegaly in the series with Hepatotoxicity [10] is recorded as 0. This compound registered a HepSE_hepatic failure with Hepatotoxicity [11] of 0. In addition, in the series on Hepatotoxicity [12], the HepSE_cirrhosis worked out at 0. Further, in the series on Hepatotoxicity [13], the “HepSE_liver function tests abnormal” value came out at 0. In the series on Hepatotoxicity [14], this compound registered a HepSE_hepatitis of 1.
In turn, `CO/N=C(\C(=O)N[C@@H]1C(=O)N2C(C(=O)OCOC(=O)C(C)(C)C)=C(/C=C\c3scnc3C)CS[C@H]12)c1csc(N)n1` [CEFDITOREN PIVOXIL] displayed a HepSE_liver fatty in the series on Hepatotoxicity [1] of 0. This compound came in with a HepSE_cholelithiasis in the series with Hepatotoxicity [2] of 0. This compound had a HepSE_cholecystitis with Hepatotoxicity [3] of 0. In the series on Hepatotoxicity [4], this compound gave a HepSE_bilirubinemia of 0. For the same compound, in the series on Hepatotoxicity [5], the “HepSE_Combined Scores” value is 1. In the series on Hepatotoxicity [6], the HepSE_liver disease was 0. In addition, in the series with Hepatotoxicity [7], the HepSE_jaundice was found to be 0. The compound also came in with a HepSE_hepatic necrosis with Hepatotoxicity [8] of 0. In addition, in the series with Hepatotoxicity [9], the “HepSE_elevated liver function tests” value came out at 0. Also, in the series with Hepatotoxicity [10], the HepSE_hepatomegaly is recorded as 0. Besides, the HepSE_hepatic failure with Hepatotoxicity [11] worked out at 0. In the series with Hepatotoxicity [12], this compound came in with a HepSE_cirrhosis of 0. The “HepSE_liver function tests abnormal” value in the series with Hepatotoxicity [13] turned out to be 1. The HepSE_hepatitis in the series on Hepatotoxicity [14] is 0.
`C=CC1=C(C(=O)O)N2C(=O)[C@@H](NC(=O)/C(=N\OCC(=O)O)c3csc(N)n3)[C@H]2SC1` [CEFIXIME] came in with a HepSE_liver fatty with Hepatotoxicity [1] of 0. In the series with Hepatotoxicity [2], the HepSE_cholelithiasis stood at 0. The same compound showed a HepSE_cholecystitis in the series on Hepatotoxicity [3] of 0. In addition, the HepSE_bilirubinemia with Hepatotoxicity [4] is 1. Moreover, the “HepSE_Combined Scores” value in the series on Hepatotoxicity [5] is reported as 3. Also, the HepSE_liver disease in the series on Hepatotoxicity [6] was 0. The compound also registered a HepSE_jaundice with Hepatotoxicity [7] of 1. This compound displayed a HepSE_hepatic necrosis with Hepatotoxicity [8] of 0. Also, the “HepSE_elevated liver function tests” value in the series on Hepatotoxicity [9] worked out at 0. This compound came in with a HepSE_hepatomegaly with Hepatotoxicity [10] of 0. Also, in the series with Hepatotoxicity [11], the HepSE_hepatic failure is given as 0. Moreover, the HepSE_cirrhosis in the series on Hepatotoxicity [12] is listed as 0. For the same compound, the “HepSE_liver function tests abnormal” value with Hepatotoxicity [13] is 0. This compound also yielded a HepSE_hepatitis with Hepatotoxicity [14] of 1.
In the series with Hepatotoxicity [1], `CCN1CCN(C(=O)N[C@@H](C(=O)N[C@@H]2C(=O)N3C(C(=O)O)=C(CSc4nnnn4C)CS[C@H]23)c2ccc(O)cc2)C(=O)C1=O` [CEFOPERAZONE] had a HepSE_liver fatty of 0. Also, the HepSE_cholelithiasis with Hepatotoxicity [2] worked out at 0. The HepSE_cholecystitis with Hepatotoxicity [3] is on record as 0. In the series on Hepatotoxicity [4], this compound had a HepSE_bilirubinemia of 0. In addition, the “HepSE_Combined Scores” value in the series with Hepatotoxicity [5] came out at 2. This compound also had a HepSE_liver disease with Hepatotoxicity [6] of 1. The HepSE_jaundice in the series on Hepatotoxicity [7] was determined as 0. In the series with Hepatotoxicity [8], this compound showed a HepSE_hepatic necrosis of 0. In the series with Hepatotoxicity [9], the “HepSE_elevated liver function tests” value amounted to 0. Moreover, the HepSE_hepatomegaly in the series on Hepatotoxicity [10] is recorded as 0. The same compound yielded a HepSE_hepatic failure with Hepatotoxicity [11] of 0. Besides, the HepSE_cirrhosis in the series on Hepatotoxicity [12] is given as 0. Besides, in the series on Hepatotoxicity [13], the “HepSE_liver function tests abnormal” value is reported as 0. In the series with Hepatotoxicity [14], this compound had a HepSE_hepatitis of 1.
For `CO/N=C(\C(=O)N[C@@H]1C(=O)N2C(C(=O)O)=C(COC(C)=O)CS[C@H]12)c1csc(N)n1` [CEFOTAXIME], in the series on Hepatotoxicity [1], the HepSE_liver fatty is listed as 0. The HepSE_cholelithiasis in the series on Hepatotoxicity [2] turned out to be 0. In the series with Hepatotoxicity [3], this compound registered a HepSE_cholecystitis of 0. Besides, the HepSE_bilirubinemia in the series on Hepatotoxicity [4] is recorded as 0. Also, the “HepSE_Combined Scores” value in the series on Hepatotoxicity [5] is on record as 2. This compound displayed a HepSE_liver disease with Hepatotoxicity [6] of 0. In the series with Hepatotoxicity [7], this compound had a HepSE_jaundice of 1. Also, in the series with Hepatotoxicity [8], the HepSE_hepatic necrosis was 0. The “HepSE_elevated liver function tests” value in the series with Hepatotoxicity [9] was found to be 0. Besides, in the series with Hepatotoxicity [10], the HepSE_hepatomegaly is 0. In the series with Hepatotoxicity [11], the HepSE_hepatic failure is 0. In the series with Hepatotoxicity [12], the HepSE_cirrhosis was 0. In addition, in the series on Hepatotoxicity [13], the “HepSE_liver function tests abnormal” value turned out to be 0. Besides, the HepSE_hepatitis with Hepatotoxicity [14] was determined as 1.
Take `CO[C@@]1(NC(=O)C2SC(=C(C(N)=O)C(=O)O)S2)C(=O)N2C(C(=O)O)=C(CSc3nnnn3C)CS[C@@H]21` (stereo partly specified) [CEFOTETAN]: in the series with Hepatotoxicity [1], the HepSE_liver fatty is listed as 0. In the series on Hepatotoxicity [2], this compound gave a HepSE_cholelithiasis of 0. In addition, the HepSE_cholecystitis in the series with Hepatotoxicity [3] is 0. Moreover, in the series on Hepatotoxicity [4], the HepSE_bilirubinemia was determined as 0. In the series with Hepatotoxicity [5], the “HepSE_Combined Scores” value came to 0. The HepSE_liver disease in the series on Hepatotoxicity [6] worked out at 0. The HepSE_jaundice in the series on Hepatotoxicity [7] is reported as 0. Also, the HepSE_hepatic necrosis in the series with Hepatotoxicity [8] is 0. The “HepSE_elevated liver function tests” value in the series with Hepatotoxicity [9] is on record as 0. This compound also had a HepSE_hepatomegaly in the series on Hepatotoxicity [10] of 0. The same compound showed a HepSE_hepatic failure in the series on Hepatotoxicity [11] of 0. This compound displayed a HepSE_cirrhosis in the series with Hepatotoxicity [12] of 0. Further, the “HepSE_liver function tests abnormal” value with Hepatotoxicity [13] amounted to 0. In the series with Hepatotoxicity [14], this compound registered a HepSE_hepatitis of 0.

(Values after ChEMBL document CHEMBL1909294, “Translating clinical findings into knowledge in drug safety evaluation--drug induced liver injury prediction system (DILIps)” (PLoS Comput Biol, 2011).)
